Laboratory results as given in patent US20260183253A1, “TREATING LIVER CANCERS WITH HYDROXYUREAMETHYL ACYLFULVENE” (Lantern Pharma Inc., priority 2023, published 2026).

System: liver cancer cell lines including SNU387, SNU475, SNU449, and HEPG2
Assay: Cell viability, CellTiter-Fluor assay, 72 h treatment
Type: cell-based
Details: values shown only in FIG. 1
Method: Liver cancer cell lines including SNU387, SNU475, SNU449, and HEPG2, were obtained from the American Type Culture Collection (ATCC), ensuring standardized and reliable cell sources. […] Cells were seeded into 96-well plates at a density optimized for exponential growth, allowing sufficient space for cellular proliferation during the course of the experiment. Each well was seeded with an equal number of cells to ensure consistency across the experiment. Following seeding, cells were allowed to adhere and acclimatize for 24 hours at 37° C. in a humidified incubator with 5% CO2, maintaining optimal growth conditions. Once acclimated, the cells were treated with either a vehicle control (DMSO) or varying concentrations of LP-184. […]
Following the 72-hour treatment period, cell viability was assessed using the CellTiter-Fluor® assay from Promega, a sensitive fluorescence-based assay that quantifies the number of viable cells based on the presence of active cellular proteases. […]
The plates were then incubated for an additional 30 minutes at 37° C. to allow the enzymatic reaction to occur, resulting in the cleavage of the fluorogenic substrate by viable cells. […] The fluorescence signal was measured using a plate reader set to an excitation wavelength of 400 nm and an emission wavelength of 505 nm, parameters optimized for the GF-AFC substrate. […]

- IC50 (nM) against various liver cancer cell lines: nanomolar potency
Structure (SMILES): CC1=C(CN(O)C(N)=O)C2=C(C)C3(CC3)[C@@](C)(O)C(=O)C2=C1 [LP-184, (−)-hydroxyureamethyl acylfulvene]
